Holding throughout (test): inhibition of tumour cell growth, NCI panel, 48 h
For experiment [1], the system named is UACC-62 melanoma.
Experiment [2] relates to HCT-15 colon.
Experiment [3] has as its system SF-295 CNS.
Experiment [4] concerns SNB-19 CNS.
Experiment [5] has as its system SNB-75 CNS.
In experiment [6] the test system is CAKI-1 renal.
Experiment [7] has as its system DU-145 prostate.

Molecules are shown by their SMILES.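 Tested at 5 concentrations; 48 h exposure; 96-well plates; endpoints linearly interpolated, else capped at highest concentration. TGI marks complete inhibition of growth.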

Take `COC12C=CC(CC1)C(C)(C)C2OS(C)(=O)=O` (stereo not given): the TGI in experiment [1], in experiment [2], in experiment [3], in experiment [4], in experiment [5] and in experiment [6] was over 100 µM in each case. Moreover, the TGI in experiment [7] is over 100 µM.

For `C=CCOCn1ccc(N)nc1=O`, the TGI in experiment [1], in experiment [2], in experiment [3], in experiment [4], in experiment [5] and in experiment [6] was over 100 µM throughout. This molecule had a TGI in experiment [7] of over 100 µM.

On to `CC(=O)OCC1OC(n2c(N)c(C#N)c(-c3cccc(Cl)c3)c(C#N)c2=S)C(OC(C)=O)C(OC(C)=O)C1OC(C)=O` (stereo not given), for which the TGI in experiment [1] was over 100 µM; in experiment [2] it was over 100 µM; in experiment [3], over 100 µM; in experiment [4], over 100 µM; in experiment [5], 56.2 µM; in experiment [6] it was over 100 µM. This molecule came in with a TGI in experiment [7] of 82 µM.

For `O=C(/C=C/c1ccccc1)Oc1cccc(Br)c1`, the TGI in experiment [1] is over 100 µM; in experiment [2] it was 42.2 µM; in experiment [3], 68.3 µM; in experiment [4], over 100 µM; in experiment [5] it was over 100 µM; in experiment [6] it was over 100 µM. This molecule returned a TGI in experiment [7] of over 100 µM.

Regarding `Cc1cc2oc3c(ccc(=O)n3C)c(=O)c2c(C)c1Cl`, the TGI in experiment [1], in experiment [2], in experiment [3], in experiment [4], in experiment [5] and in experiment [6] was over 100 µM in each case. The TGI in experiment [7] is over 100 µM.

These data come from PubChem BioAssay (NCI).
